One may read the MIC as the lowest concentration found to suppress growth. One may read the MBC as the smallest concentration meeting the test's criterion for killing. One may read the cell viability as a read-out of living cells in per cent, often relative to untreated cells. Read a high cell viability as less harm to the cells.

SMILES strings stand for the structures. ≈ marks a conversion by molar mass, not a printed value. Residues, ends and D or L forms follow the SMILES beside them. A value given as a limit tells only on which side of the number the result lay.

Experimental findings from paper PMC11100219, “Dual-function antimicrobial-antibiofilm peptide hybrid to tackle biofilm-forming Staphylococcus epidermidis” (Annals of Clinical Microbiology and Antimicrobials, 2024) are described below.

The subject of data set [1] is Acinetobacter baumanii MT strain. Kind of data set: Broth microdilution MIC / MBC. The data set is classed as cell-based. As to conditions: 24 h, 37°C. As to the method:
(§1) The minimal inhibitory concentrations (MICs) of peptide derivatives versus planktonic bacteria were assessed using a modification of the broth microdilution assay previously described in the National Committee for Clinical Laboratory Standards (NCCLS). In brief, bacteria at mid-logarithmic growth were collected by centrifugation at 2,500 × g for 5 min. Subsequently, the pellet was resuspended and adjusted in Mueller-Hinton Broth (MHB; BD Bacto™, USA) to an OD620 of 0.05. Fifty µL of bacterial suspensions was transferred to 96-well microplates. Later, 50 µL of peptide derivatives at 0.98–250 µg/mL in 10 mM PBS, was added to wells and incubated for 24 h at 37°C with continuous shaking at 220 rpm. […] The experiments were done in three technical replicates and repeated independently.
(§2) To determine minimal bactericidal concentrations (MBCs) of the peptides, 50 µL of supernatant from non-turbid wells was plated on TSA, and the number of colony-forming units (CFUs) was observed after 24 h of incubation at 37°C. MBC was defined as the minimum concentration of peptide at which no bacterial colony was observed on the plate.

The subject of data set [2] is Bacillus cereus ATCC 11778. As to the kind of experiment: Broth microdilution MIC / MBC. As to conditions: 24 h, 37°C. Type of data set: cell-based. Here is the method:
as §1, §2

Data set [3] has as its system Escherichia coli ATCC 25922. As to the kind of experiment: Broth microdilution MIC / MBC. The data set is classed as cell-based. The note with it: 24 h, 37°C. Here is the method:
as §1, §2
(Dilution methods test growth across graded concentrations, often in twofold steps.)

The subject of data set [4] is Listeria monocytogenes 10403s. Kind of data set: Broth microdilution MIC / MBC. Type of data set: cell-based. As to conditions: 24 h, 37°C. As to the method:
as §1, §2

Data set [5] concerns Pseudomonas aeruginosa ATCC 27853. Kind of data set: Broth microdilution MIC / MBC. The data set is classed as cell-based. The note with it: 24 h, 37°C. Here is the method:
as §1, §2

Data set [6] has as its system Salmonella Typhimurium ATCC 13311. As to the kind of experiment: Broth microdilution MIC / MBC. Type of data set: cell-based. The note with it: 24 h, 37°C. Here is the method:
as §1, §2

In data set [7] the test system is Staphylococcus aureus ATCC 25923. Kind of data set: Broth microdilution MIC / MBC. The data set is classed as cell-based. The note with it: 24 h, 37°C. Here is the method:
as §1, §2

The subject of data set [8] is Staphylococcus epidermidis ATCC 35984. As to the kind of experiment: Broth microdilution MIC / MBC. The data set is classed as cell-based. The note with it: plating of non-turbid wells on TSA, 24 h, 37°C. Here is the method: as §1, §2
Data set [9] has as its system human red blood cells (hRBCs). As to the kind of experiment: Hemolysis activity (hemoglobin release). Type of data set: cell-based. The note with it: 1 h, 37°C. Here is the method:
The effect of peptides on human red blood cells (hRBCs) was assessed by observing the release of hemoglobin upon treated with peptide. Briefly, the hRBCs were obtained from healthy volunteers and subsequently diluted in 10 mM PBS to a concentration of 2% hRBCs. An equal volume of 2% hRBCs and peptide at concentration of 0.98–250 µg/mL in 10 mM PBS mixtures were incubated for 1 h at 37°C. Following incubation, the suspension was centrifuged, then supernatants were collected and transferred to 96-well microplates for measurement of absorbance at OD of 405 nm (OD405). This study was performed in accordance with the Thammasat University Ethics Committee (COA No. 066/2562). Written informed consent was obtained from all volunteers.

Data set [10] concerns all gram-positive bacterial strains. Kind of data set: Mean MIC and therapeutic index, gram-positive strains. The data set is classed as cell-based. The note with it: four gram-positive strains. Here is the method:
as §1
The therapeutic index (TI) is widely used for evaluating a peptide’s efficacy and safety. It is the ratio between the minimum hemolytic concentration (MHC, the concentration causing 10% hemolysis) and the geometric mean (GM) value of the MIC [15]. […] While, both lysine-substituted peptides (BiF2_7K and BiF2_5K7K) had higher TIs against all tested biofilm-forming bacteria than did the two parent peptides, and the TI of BiF2_5K7K was higher than that of BiF2_7K.

The subject of data set [11] is human lung fibroblast MRC-5 cell lines (ATCC CCL-171). Kind of data set: MTT cytotoxicity assay. Type of data set: cell-based. The note with it: MRC-5, 250 µg/mL (maximum concentration tested), 24 h. As to the method: The toxicity of peptide BiF2_5K7K against human lung fibroblast MRC-5 cell lines (ATCC CCL-171) was investigated by MTT colorimetric assay. Briefly, MRC-5 cells were cultured in Minimum Essential Medium [MEM; supplemented with 10% heat-inactivated FBS and 1% Penicillin-Streptomycin] in 5% CO2 at 37°C. Following an overnight incubation, MRC-5 cells were diluted to 10,000 cells/well and placed in 96-well microplates. Subsequently, they were exposed to BiF2_5K7K at 0.98 to 250 µg/mL. After incubation for 24 h, MTT solution (0.4 mg/mL) was added to each well and incubated for an additional 3 h under 5% CO2 at 37°C. The supernatant was then removed and 100 µL DMSO added, and absorbance was measured at 570 nm using a microplate reader.
On the technique in general: Formazan colour is commonly taken as a measure of viable cells.

The test system of data set [12] is planktonic S. epidermidis. As to the kind of experiment: Time-killing analysis. Type of data set: cell-based, Staphylococcus epidermidis. As to conditions: for number of S. epidermidis: within 4 h, MHB, 37°C. As to the method: The time-dependent bactericidal activity of BiF2_5K7K against planktonic S. epidermidis was determined as previously described. In brief, mid-log phase bacteria in MHB were exposed to BiF2_5K7K at MIC and/or MBC for 24 h at 37°C. The bacterial suspensions were obtained at specific time point (0, 2, 4, 6, 8 and 24 h), and 10-fold serially diluted with PBS and then plated on TSA. Untreated bacterial suspension was served as a control. After incubation, the number of CFUs was determined by colony count.

A further data set relates to S. epidermidis. As to the kind of experiment: Serum stability by MIC in human serum. Type of data set: cell-based, Staphylococcus epidermidis. As to conditions: 10^6 CFU/mL, 24 h, 37°C. As to the method:
The stability of BiF2_5K7K in the presence of human serum was assessed by evaluating the MIC values, as previously described. Human serum was subjected to heat inactivation at 56°C for 30 min. Bacterial suspensions were then adjusted to a concentration of 10^6 CFU/mL in MHB supplemented with 25% and 50% human serum. These suspensions were mixed with two-fold serially diluted concentrations of BiF2_5K7K (ranging from 0.98 to 250 µg/mL) and incubated at 37°C for 24 h. MICs were subsequently determined as described above. The study protocol was ethically approved by the Thammasat University Ethics Committee (COA No. 066/2562). All volunteers provided written informed consent.

[13] abbreviates: broth microdilution, MHB, 0.98-250 µg/mL, visible inspection.
The mark [14] stands for this setting: plating of non-turbid wells on TSA.

As for `CC[C@H](C)[C@H](NC(=O)[C@H](CCCCN)NC(=O)[C@H](CCCCN)NC(=O)[C@@H](NC(=O)[C@H](CC(C)C)NC(=O)[C@@H](N)Cc1ccccc1)C(C)C)C(=O)N[C@@H](CCCCN)C(=O)N[C@@H](CCCCN)C(=O)N[C@H](C(=O)N[C@@H](CC(C)C)C(=O)N[C@@H](CCCNC(=N)N)C(=O)N[C@@H](CCCNC(=N)N)C(N)=O)[C@@H](C)CC` [BiF2_5K7K] (H-FLVKKIKKILRR-NH2; N-terminus assumed), the MIC in data set [1] (setting [13]) amounted to 31.2 mg/L (≈ 20.3 µM); in data set [2] (setting [13]), 250 mg/L (≈ 162 µM); in data set [3] (setting [13]), 250 mg/L (≈ 162 µM); in [4] (setting [13]), 31.25 mg/L (≈ 20.3 µM); in [5] (setting [13]) it was 62.5 mg/L (≈ 40.6 µM); in data set [6] (setting [13]) it was 31.25 mg/L (≈ 20.3 µM). Besides, the MIC in data set [7] (setting [13]) was more than 250 mg/L. The MBC in data set [1] (setting [14]) is 31.2 mg/L (≈ 20.3 µM); in data set [2] (setting [14]), 250 mg/L (≈ 162 µM); in [3] (setting [14]), 250 mg/L (≈ 162 µM); in data set [4] (setting [14]), 62.5 mg/L (≈ 40.6 µM); in data set [5] (setting [14]), 125 mg/L (≈ 81.1 µM); in data set [6] (setting [14]), 62.5 mg/L (≈ 40.6 µM). In addition, the MBC is more than 250 mg/L in [7] (setting [14]) and 31.25 mg/L (≈ 20.3 µM) in data set [8]. Also, the hemolytic activity entry in [9] (at 250 µg/mL (maximum concentration tested)) is “less than 10%”. Moreover, the “MHC, minimum hemolytic concentration” value in data set [9] (peptide concentration causing 10% hemolysis of hRBCs, 2% hRBCs in 10 mM PBS, OD405) is given as more than 250 µg/mL. Further, in data set [10], the “GM +, geometric mean of MIC values from all gram-positive bacterial strains” value came to 199.22 mg/L. This compound displayed a cell viability in [11] of more than 99%. Besides, the “number of S. epidermidis” value in data set [12] (peptide at MBC) and in data set [12] (peptide at MIC) was “approximately 10^3 CFU/mL” in each case. Further, the regrowth entry in [12] (peptide at MIC, after 8 h) is “regrowth was observed”. Also, the “MIC in the presence of human serum” value in the data set on S. epidermidis (MHB with 25% heat-inactivated human serum) and with S. epidermidis (MHB with 50% heat-inactivated human serum) was 15.63 mg/L throughout.
